The text below walks through data of ChEMBL document CHEMBL2010763, “Discovery of a new binding mode for a series of liver X receptor agonists” (Bioorg Med Chem Lett, 2012).

Active and inactive are the calls of the source. The calls are words filed in the database; no cut-off is given here.

Test [1] deals with T1, Oxysterols receptor LXR-alpha (Homo sapiens) (UniProt Q13133).
T1 sequence (whole entry): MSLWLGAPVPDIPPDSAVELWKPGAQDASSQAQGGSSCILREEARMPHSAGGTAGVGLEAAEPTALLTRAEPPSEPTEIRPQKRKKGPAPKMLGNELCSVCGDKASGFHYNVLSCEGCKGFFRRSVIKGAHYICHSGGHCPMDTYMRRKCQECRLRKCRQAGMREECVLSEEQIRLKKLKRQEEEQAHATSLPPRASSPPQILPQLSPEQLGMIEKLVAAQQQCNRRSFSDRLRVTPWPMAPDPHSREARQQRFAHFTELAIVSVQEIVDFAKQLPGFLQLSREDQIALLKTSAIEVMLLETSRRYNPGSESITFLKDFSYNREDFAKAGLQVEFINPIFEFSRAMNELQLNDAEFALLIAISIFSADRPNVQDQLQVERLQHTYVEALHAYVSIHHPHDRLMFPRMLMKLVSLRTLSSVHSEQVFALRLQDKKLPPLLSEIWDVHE
Briefly: (§1) Displacement of [3H]N-(4-(1,1,1,3,3,3-hexafluoro-2-hydroxypropan-2-yl)phenyl)-N-methylbenzenesulfonamide from LXRalpa by scintillation proximity assay. Background: Loss of bound radioactivity is the signal in a displacement assay; it reports binding, not function.

Test [2] concerns the target Oxysterols receptor LXR-beta (Homo sapiens, UniProt P55055). Kind of test: Displacement of [3H]N-(4-(1,1,1,3,3,3-hexafluoro-2-hydroxypropan-2-yl)phenyl)-N-methylbenzenesulfonamide from LXRbeta by scintillation proximity assay.
Test [3] concerns the target T2, Oxysterols receptor LXR-alpha (Homo sapiens, UniProt Q13133).
T2 sequence (Q13133 whole entry): T1 sequence (whole entry)
The description is as §1.

Chain of Oxysterols receptor LXR-beta (P55055 whole entry): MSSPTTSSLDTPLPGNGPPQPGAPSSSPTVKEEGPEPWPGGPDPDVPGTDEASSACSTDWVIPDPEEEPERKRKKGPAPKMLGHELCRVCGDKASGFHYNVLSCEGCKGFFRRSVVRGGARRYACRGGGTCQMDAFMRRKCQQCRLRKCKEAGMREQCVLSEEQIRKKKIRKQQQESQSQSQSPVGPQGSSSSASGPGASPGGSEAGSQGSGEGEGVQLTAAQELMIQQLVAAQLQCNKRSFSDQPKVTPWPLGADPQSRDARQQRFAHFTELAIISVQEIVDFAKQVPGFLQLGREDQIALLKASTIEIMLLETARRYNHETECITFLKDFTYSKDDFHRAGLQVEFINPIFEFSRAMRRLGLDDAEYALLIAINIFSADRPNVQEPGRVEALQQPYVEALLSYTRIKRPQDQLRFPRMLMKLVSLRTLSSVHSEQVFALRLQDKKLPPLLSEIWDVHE

Regarding `COCCn1cccc1C(CO)c1ccc(N(C)S(=O)(=O)c2ccccc2)cc1` (centres undefined), the inhibition entry in test [1] and in test [2] was “inactive” in each case.
Turning to `CCC(O)(c1ccc(N(C)S(=O)(=O)c2ccccc2)cc1)c1cccn1CCOC` (centres undefined), the inhibition result in test [1] and in test [2] was “inactive” in each case.
Regarding `COCCn1cccc1C(C)c1ccc(N(C)S(=O)(=O)c2ccccc2)cc1` (centres undefined), the inhibition entry in test [1] and in test [2] was “inactive” in each case.
Turning to `CCC(c1ccc(N(C)S(=O)(=O)c2ccccc2)cc1)c1cccn1CCOC` (centres undefined), the inhibition entry in test [1] and in test [2] was “inactive” in each case.
For `CCCCCCn1cccc1C(O)(c1ccc(N(C)S(=O)(=O)c2ccccc2)cc1)C(F)(F)F` (centres undefined), the inhibition result in test [1] and in test [2] was “inactive” throughout.
With `CCCCn1cccc1C(O)(c1ccc(N(C)S(=O)(=O)c2ccccc2)cc1)C(F)(F)F` (centres undefined), the inhibition result in test [1] and in test [2] was “inactive” throughout.
Turning to `CCCn1cccc1C(O)(c1ccc(N(C)S(=O)(=O)c2ccccc2)cc1)C(F)(F)F` (centres undefined), the inhibition entry in test [1] and in test [2] was “inactive” throughout.
Consider `CN(c1ccc(C(O)(c2ccc[nH]2)C(F)(F)F)cc1)S(=O)(=O)c1ccccc1` (centres undefined), for which the inhibition result in test [1] and in test [2] was “inactive” each time.
For the compound `COCCn1cccc1C(O)c1ccc(N(C)S(=O)(=O)c2ccccc2)cc1` (centres undefined), the inhibition result in test [1] and in test [2] was “inactive” each time.
Consider `COCCn1cccc1Cc1ccc(N(C)S(=O)(=O)c2ccccc2)cc1`, for which the inhibition entry in test [1] and in test [2] was “inactive” throughout.
Turning to `CN(c1ccc(C(O)(c2cccn2CCCO)C(F)(F)F)cc1)S(=O)(=O)c1ccccc1` (centres undefined), the inhibition entry in test [1] and in test [2] was “inactive” in each case.
As for `CCCC(O)(c1ccc(N(C)S(=O)(=O)c2ccccc2)cc1)c1cccn1CCOC` (centres undefined), the inhibition result in test [1] and in test [2] was “inactive” throughout.
Turning to `COC(c1ccc(N(C)S(=O)(=O)c2ccccc2)cc1)(c1cccn1Cc1ccccc1)C(F)(F)F` (racemic), the IC50 in test [3] and in test [2] was above 10 µM throughout.
Take `CN(c1ccc(C(O)(c2cccn2CCO)C(F)(F)F)cc1)S(=O)(=O)c1ccccc1` (centres undefined): the inhibition entry in test [1] and in test [2] was “inactive” in each case.
With `CCn1cccc1C(O)(c1ccc(N(C)S(=O)(=O)c2ccccc2)cc1)C(F)(F)F` (centres undefined), the inhibition entry in test [1] and in test [2] was “inactive” in each case.
On to `COCCn1cccc1C(=O)c1ccc(N(C)S(=O)(=O)c2ccccc2)cc1`, for which the inhibition result in test [1] and in test [2] was “inactive” in each case.
Consider `CN(c1ccc(C(O)(c2cccn2C)C(F)(F)F)cc1)S(=O)(=O)c1ccccc1` (centres undefined), for which the inhibition result in test [1] and in test [2] was “inactive” each time.
In the case of `COCCn1cccc1C(C)(O)c1ccc(N(C)S(=O)(=O)c2ccccc2)cc1` (centres undefined), the inhibition result in test [1] and in test [2] was “inactive” each time.
Regarding `COCCn1cccc1C(OC)c1ccc(N(C)S(=O)(=O)c2ccccc2)cc1` (centres undefined), the inhibition result in test [1] and in test [2] was “inactive” throughout.
For the compound `CCC(C)n1cccc1C(O)(c1ccc(N(C)S(=O)(=O)c2ccccc2)cc1)C(F)(F)F` (centres undefined), the inhibition entry in test [1] and in test [2] was “inactive” in each case.
For the compound `CCOC(c1ccc(N(C)S(=O)(=O)c2ccccc2)cc1)c1cccn1CCOC` (centres undefined), the inhibition entry in test [1] and in test [2] was “inactive” each time.
With `CCCC(c1ccc(N(C)S(=O)(=O)c2ccccc2)cc1)c1cccn1CCOC` (centres undefined), the inhibition entry in test [1] and in test [2] was “inactive” in each case.
